Experimental data: ChEMBL document CHEMBL5244278, “Bioisosteres of the Phenyl Ring: Recent Strategic Applications in Lead Optimization and Drug Design” (J Med Chem, 2021)
Values after ≈ are worked out from the molar mass of the structure shown. Blank lines part the entries; values can stand above or below the compound they belong to.

Key:
[1] = Inhibition of LFA-1/ICAM-1 (unknown origin) interaction; design: species or system Homo sapiens
[2] = molecular target: Tyrosine-protein kinase ABL1 (Homo sapiens, UniProt P00519); test: Inhibition of ABL1 (unknown origin)
Tyrosine-protein kinase ABL1, sequence (P00519 whole entry): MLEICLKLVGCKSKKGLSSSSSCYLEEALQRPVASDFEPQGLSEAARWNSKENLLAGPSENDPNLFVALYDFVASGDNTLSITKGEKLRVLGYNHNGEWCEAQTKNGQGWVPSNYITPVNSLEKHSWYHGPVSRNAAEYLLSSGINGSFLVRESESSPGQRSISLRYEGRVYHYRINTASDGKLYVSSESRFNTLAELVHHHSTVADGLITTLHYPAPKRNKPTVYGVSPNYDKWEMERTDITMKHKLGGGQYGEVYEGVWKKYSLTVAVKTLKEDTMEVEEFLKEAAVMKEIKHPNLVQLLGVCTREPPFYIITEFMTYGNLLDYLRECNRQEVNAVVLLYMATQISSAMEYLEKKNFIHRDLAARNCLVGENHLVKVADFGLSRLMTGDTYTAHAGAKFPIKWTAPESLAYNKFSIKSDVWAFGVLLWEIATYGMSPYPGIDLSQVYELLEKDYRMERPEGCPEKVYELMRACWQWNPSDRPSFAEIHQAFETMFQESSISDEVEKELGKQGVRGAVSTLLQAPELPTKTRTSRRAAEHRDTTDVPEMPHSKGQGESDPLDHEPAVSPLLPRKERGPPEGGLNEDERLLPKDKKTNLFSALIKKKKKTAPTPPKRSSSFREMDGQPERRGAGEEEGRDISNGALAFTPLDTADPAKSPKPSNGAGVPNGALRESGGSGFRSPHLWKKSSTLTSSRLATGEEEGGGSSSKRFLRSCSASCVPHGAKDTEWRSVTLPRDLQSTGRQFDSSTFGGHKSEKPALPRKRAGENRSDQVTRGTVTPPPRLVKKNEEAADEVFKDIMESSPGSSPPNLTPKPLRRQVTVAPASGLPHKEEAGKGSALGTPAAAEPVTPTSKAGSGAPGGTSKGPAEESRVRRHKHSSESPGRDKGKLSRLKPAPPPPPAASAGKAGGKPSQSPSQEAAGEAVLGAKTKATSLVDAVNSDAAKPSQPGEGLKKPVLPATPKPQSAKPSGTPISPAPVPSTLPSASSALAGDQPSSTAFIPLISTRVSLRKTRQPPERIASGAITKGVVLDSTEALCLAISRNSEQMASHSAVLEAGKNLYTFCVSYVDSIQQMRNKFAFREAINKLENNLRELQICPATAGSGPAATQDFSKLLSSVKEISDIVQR

physchem = settings: buffer, pH 7.4
Hepatitis C virus [3] = test: Antiviral activity against HCV GT4a-genotype assessed as inhibition of viral replication; assay type: functional, organism-based, Hepacivirus hominis
Hepatitis C virus [4] = test: Antiviral activity against HCV GT3a-genotype assessed as inhibition of viral replication; assay type: functional, organism-based, Hepacivirus hominis
Hepatitis C virus [5] = test: microbe, parasite or virus in culture; settings: GT1a-genotype
Hepatitis C virus [6] = test: Antiviral activity against HCV GT2a-genotype assessed as inhibition of viral replication; assay type: functional, organism-based, Hepacivirus hominis
[7] = Dissociation constant, pKa of the compound; assay type: physicochemical
[8] = Clearance in rat liver microsomes; assay type: ADME, Microsome
CYP3A4 = CYP3A4 (Homo sapiens, UniProt P08684); test: (§1) Inhibition of CYP3A4 (unknown origin); assay type: ADME
CYP3A4, sequence (P08684 whole entry): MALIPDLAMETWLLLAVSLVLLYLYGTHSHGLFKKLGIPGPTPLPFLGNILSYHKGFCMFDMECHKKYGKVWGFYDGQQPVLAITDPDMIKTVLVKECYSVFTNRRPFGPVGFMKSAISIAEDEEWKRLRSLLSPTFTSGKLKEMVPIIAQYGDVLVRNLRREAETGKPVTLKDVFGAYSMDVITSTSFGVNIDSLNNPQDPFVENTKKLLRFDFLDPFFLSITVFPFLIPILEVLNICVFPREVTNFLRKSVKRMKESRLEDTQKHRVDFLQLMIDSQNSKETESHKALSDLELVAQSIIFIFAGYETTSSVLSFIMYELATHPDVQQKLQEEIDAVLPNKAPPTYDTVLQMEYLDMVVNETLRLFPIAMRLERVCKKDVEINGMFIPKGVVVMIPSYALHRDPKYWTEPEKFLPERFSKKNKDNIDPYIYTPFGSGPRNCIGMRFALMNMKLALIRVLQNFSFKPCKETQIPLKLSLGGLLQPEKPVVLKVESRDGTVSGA

[9] = Solubility of compound at pH 6.8 by RapidFire mass spectrometry; assay type: physicochemical; settings: buffer
[10] = Solubility of the compound in FaSSIF at pH 6.8 by RapidFire mass spectrometry; assay type: ADME; settings: simulated gi fluid
[11] = Prodrug conversion in rat plasma assessed as formation of Isavuconazole from intermediate by measuring half life; assay type: ADME, cell-free
[12] = Prodrug conversion in rat plasma assessed as esterase mediated intermediate formation by measuring half life; assay type: ADME, cell-free
[13] = Solubility of the compound; assay type: physicochemical
[14] = Inhibition of WNT (unknown origin) by luciferase reporter assay; design: species or system Homo sapiens
[15] = Inhibition of MAPK (unknown origin); design: species or system Homo sapiens
[16] = molecular target: Voltage-gated inwardly rectifying potassium channel KCNH2 (Homo sapiens, UniProt Q12809); test: (§2) Inhibition of hERG channel; assay type: toxicity
Voltage-gated inwardly rectifying potassium channel KCNH2, sequence (Q12809 whole entry): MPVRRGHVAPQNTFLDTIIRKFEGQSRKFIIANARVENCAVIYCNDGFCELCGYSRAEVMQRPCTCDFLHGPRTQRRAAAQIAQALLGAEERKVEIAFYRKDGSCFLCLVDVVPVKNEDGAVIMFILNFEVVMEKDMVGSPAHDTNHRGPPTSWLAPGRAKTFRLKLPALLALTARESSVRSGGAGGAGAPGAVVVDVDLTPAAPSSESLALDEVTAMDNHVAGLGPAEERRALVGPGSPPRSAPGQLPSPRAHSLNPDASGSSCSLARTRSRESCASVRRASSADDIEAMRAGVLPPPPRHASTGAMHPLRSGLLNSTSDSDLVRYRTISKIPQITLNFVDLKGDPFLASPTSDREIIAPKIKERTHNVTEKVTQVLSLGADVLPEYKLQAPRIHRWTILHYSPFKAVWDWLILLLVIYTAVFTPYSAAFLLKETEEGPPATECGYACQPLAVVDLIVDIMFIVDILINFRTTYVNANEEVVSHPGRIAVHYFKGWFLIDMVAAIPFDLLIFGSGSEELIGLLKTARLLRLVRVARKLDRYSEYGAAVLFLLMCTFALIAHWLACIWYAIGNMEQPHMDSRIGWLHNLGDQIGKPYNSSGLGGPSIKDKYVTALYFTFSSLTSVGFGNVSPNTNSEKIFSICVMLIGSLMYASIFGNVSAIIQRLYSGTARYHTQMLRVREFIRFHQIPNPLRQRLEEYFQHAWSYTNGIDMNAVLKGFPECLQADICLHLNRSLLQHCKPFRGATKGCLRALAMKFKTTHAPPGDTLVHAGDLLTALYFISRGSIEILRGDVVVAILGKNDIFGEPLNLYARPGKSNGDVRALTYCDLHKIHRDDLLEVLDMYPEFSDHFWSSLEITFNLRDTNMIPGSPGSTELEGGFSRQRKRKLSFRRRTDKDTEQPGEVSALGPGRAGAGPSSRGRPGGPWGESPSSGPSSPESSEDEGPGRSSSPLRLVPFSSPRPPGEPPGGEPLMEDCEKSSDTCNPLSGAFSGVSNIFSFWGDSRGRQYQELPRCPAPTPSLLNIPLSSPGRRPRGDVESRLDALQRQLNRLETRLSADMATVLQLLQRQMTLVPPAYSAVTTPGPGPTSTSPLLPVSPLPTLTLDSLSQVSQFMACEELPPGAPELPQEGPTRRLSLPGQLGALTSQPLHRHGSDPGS

[17] = Lipophilicity, logD of the compound in 1-octanol and phosphate buffer by tandem mass spectrometer analysis; assay type: physicochemical; settings: 1-octanol/phosphate buffer
Cytochrome P450 3A4 = Cytochrome P450 3A4 (Homo sapiens, UniProt P08684); test: as §1; assay type: ADME
Cytochrome P450 3A4, sequence (P08684 whole entry): as the sequence (P08684 whole entry) above

Hepatitis C virus [18] = test: microbe, parasite or virus in culture; settings: GT1b-genotype
[19] = Lipophilicity, logD of the compound at pH 7.4; assay type: physicochemical; settings: buffer
hERG (KCNH2) = hERG (KCNH2) (Homo sapiens, UniProt Q12809); test: as §2; assay type: toxicity; settings: human
hERG (KCNH2), sequence (Q12809 whole entry): as the sequence (Q12809 whole entry) above

MIA PaCa-2 = test: Antiproliferative activity against human MIA PaCa-2 cells assessed as cell growth inhibition at 30 uM relative to control; assay type: functional
[20] = Aqueous solubility of compound at pH 7.4; assay type: physicochemical
[21] = Half life in rat hepatocytes; assay type: ADME, cell-based, Hepatocyte
SU-DHL10 = test: Antiproliferative activity against human SU-DHL-10 cells assessed as cell growth inhibition at 30 uM relative to control; assay type: functional
MDA-MB-231 = test: Antiproliferative activity against human MDA-MB-231 cells assessed as cell growth inhibition at 30 uM relative to control; assay type: functional
[22] = molecular target: Beta-2 adrenergic receptor (Bos taurus, UniProt Q28044); test: Antagonist activity at bovine lung membrane adrenergic beta-2 receptor; assay type: cell membranes
Beta-2 adrenergic receptor, sequence (Q28044 whole entry): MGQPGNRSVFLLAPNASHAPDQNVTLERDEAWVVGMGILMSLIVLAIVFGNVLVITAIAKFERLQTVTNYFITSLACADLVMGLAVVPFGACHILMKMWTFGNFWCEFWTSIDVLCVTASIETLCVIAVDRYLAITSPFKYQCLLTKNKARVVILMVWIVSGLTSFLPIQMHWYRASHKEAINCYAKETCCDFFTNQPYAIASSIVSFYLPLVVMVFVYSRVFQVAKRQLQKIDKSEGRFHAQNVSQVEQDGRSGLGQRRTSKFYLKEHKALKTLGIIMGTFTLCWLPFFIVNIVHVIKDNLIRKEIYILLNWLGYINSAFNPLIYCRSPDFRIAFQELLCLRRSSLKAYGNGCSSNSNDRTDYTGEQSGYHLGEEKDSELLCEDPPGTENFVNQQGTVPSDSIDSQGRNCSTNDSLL

[23] = molecular target: Beta-1 adrenergic receptor (Rattus norvegicus, UniProt P18090)
Beta-1 adrenergic receptor, sequence (P18090 whole entry): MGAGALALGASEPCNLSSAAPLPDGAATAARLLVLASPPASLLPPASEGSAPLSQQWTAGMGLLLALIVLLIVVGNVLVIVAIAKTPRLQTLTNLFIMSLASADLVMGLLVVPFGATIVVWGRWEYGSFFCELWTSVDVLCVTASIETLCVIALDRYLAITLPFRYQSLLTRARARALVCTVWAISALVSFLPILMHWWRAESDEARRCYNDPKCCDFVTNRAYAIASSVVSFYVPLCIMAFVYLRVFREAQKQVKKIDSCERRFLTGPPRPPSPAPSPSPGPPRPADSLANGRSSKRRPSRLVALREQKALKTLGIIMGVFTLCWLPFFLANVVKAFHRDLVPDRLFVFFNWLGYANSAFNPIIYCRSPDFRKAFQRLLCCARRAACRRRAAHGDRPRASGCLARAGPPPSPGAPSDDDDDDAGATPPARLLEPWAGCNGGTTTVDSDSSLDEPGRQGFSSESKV

Trypanosoma cruzi = test: Antitrypanosomal activity against Trypanosoma cruzi trypomastigotes infected in mouse 3T3 cells assessed as reduction in parasite growth; assay type: functional, organism-based; settings: NIH3T3

SMILES: O=C(/C=C/c1ccc(Sc2ccc(Cl)cc2Cl)c(Br)c1)NCCCN1CCCC1=O
IC50 [1]: 650 nM

SMILES: N#Cc1ccc(Br)cc1
solubility (physchem): 194 µg/mL

SMILES: COC(=O)N[C@@H](C(=O)N1CCC[C@@H]1c1ncc(-c2csc3c(-c4cnc([C@H]5CCCN5C(=O)[C@H](NC(=O)OC)C(C)C)[nH]4)csc23)[nH]1)C(C)C
EC50 (Hepatitis C virus [3]): < 0.1 nM | EC50 (Hepatitis C virus [4]): 0.1 nM | EC50 (Hepatitis C virus [5]): < 0.1 nM | EC50 (Hepatitis C virus [6]): < 0.1 nM

SMILES: NC12CCC(CC1)CC2
pKa [7]: 11

SMILES: O=C(NCCS(=O)(=O)c1ccc(C(F)(F)F)cn1)c1ccc(B2C=CC=CN2)cc1
IC50 [16]: > 30000 nM | CLhep predicted [8]: 53 mL/min/kg | logD [17]: 3.5 | IC50 (Cytochrome P450 3A4): > 20000 nM | solubility [9]: < 0.004 µM | solubility [10]: 0.006 µM (≈ 2.61 ng/mL)

SMILES: O=C(NCCS(=O)(=O)c1ccc(C(F)(F)F)cn1)c1ccc(-c2ccccc2)cc1
IC50 [16]: > 30000 nM | CLhep predicted [8]: 39 mL/min/kg | IC50 (CYP3A4): > 20000 nM | solubility [9]: < 0.004 µM | solubility [10]: < 0.004 µM

SMILES: N#Cc1ccccc1Br
solubility (physchem): 412 µg/mL

SMILES: Oc1ccc(/C=C/c2cc(O)cc(O)c2)cc1 [RESVERATROL]
logD [19]: 2.9 | inhibition at 30 µM (MIA PaCa-2): 30% | solubility [20]: 19 µg/mL (≈ 83.2 µM) | half-life [21]: < 7.5 min | inhibition at 30 µM (SU-DHL10): 46% | inhibition at 30 µM (MDA-MB-231): 20%

SMILES: CC/C=N/OCC(O)CNC(C)(C)C (centres undefined)
IC50 [22]: 1550 nM | IC50 [23]: 26300 nM

SMILES: O=C(Cn1ccnc1[N+](=O)[O-])NCc1ccccc1 [BENZNIDAZOLE]
EC50 (Trypanosoma cruzi): 6100 nM

SMILES: NC12CCC(CC1)C2
pKa [7]: 11

SMILES: N#Cc1cccc(Br)c1
solubility (physchem): 637 µg/mL

Further lines, with some results ahead:

IC50 [2]: > 1000 nM | solubility (physchem): 3720 µM
SMILES: Cc1ccc(NC(=O)[C@@H]2C[C@H]2CN2CCN(C)CC2)cc1Nc1nccc(-c2cccnc2)n1

CLhep predicted [8]: 51 mL/min/kg | IC50 (CYP3A4): > 20000 nM | solubility [9]: < 0.005 µM | solubility [10]: 0.021 µM (≈ 9.32 ng/mL)
SMILES: COc1ccccc1N1CCN(CCCCNC(=O)c2ccc(-c3ccccc3)cc2)CC1

CLhep predicted [8]: 53 mL/min/kg | solubility [9]: 0.046 µM (≈ 20.4 ng/mL) | solubility [10]: 0.22 µM (≈ 97.8 ng/mL)
SMILES: COc1ccccc1N1CCN(CCCCNC(=O)c2ccc(B3C=CC=CN3)cc2)CC1

IC50 [2]: > 1000 nM | solubility (physchem): 2000 µM
SMILES: Cc1ccc(NC(=O)[C@H]2C[C@H](CN3CCN(C)CC3)C2)cc1Nc1nccc(-c2cccnc2)n1

t1/2 [11]: 13 min | t1/2 [12]: < 2 min | solubility [13]: 1000 µg/mL
SMILES: CNCC(=O)OCc1ccccc1N(C)C(=O)OC(C)[n+]1cnn(C[C@](O)(c2cc(F)ccc2F)[C@H](C)c2nc(-c3ccc(C#N)cc3)cs2)c1 (some centres undefined)

solubility [13]: > 200 µg/mL
SMILES: CC(=O)Nc1nc2c(Oc3cc(N4CCN([C@H](C)c5ccc(F)cc5)CC4)ncn3)cccc2s1

EC50 [14]: 0.7 nM
SMILES: Cc1cc(-c2ccc(CNC(=O)c3ccc(-c4cnccn4)cc3)cc2)ccn1

IC50 [1]: 3000 nM
SMILES: CC(=O)N1CCN(c2nc(-c3ccc(Sc4ccccc4C(C)C)c(C(F)(F)F)c3)cs2)CC1

IC50 [1]: 220 nM
SMILES: CC(=O)N1CCN(c2cc(-c3ccc(Sc4ccccc4C(C)C)c(C(F)(F)F)c3)ncn2)CC1

IC50 [15]: 93 nM | solubility (physchem): 0.0255 µg/mL
SMILES: COCCn1c(SC)nc(-c2ccc(F)cc2)c1-c1cccc(NC(=O)CCc2ccccc2OC)c1

EC50 (Hepatitis C virus [18]): < 1 nM
SMILES: COC(=O)N[C@@H](C(=O)N1CCC[C@@H]1c1ncc(-c2ccc(-c3cc4oc(-c5cnc([C@H]6CCCN6C(=O)[C@H](NC(=O)OC)C(C)C)[nH]5)cc4s3)cc2)[nH]1)C(C)C

logD [19]: 3.5 | solubility (physchem): 397 µM
SMILES: O=C(c1ccccc1-c1ccccc1)N1CCCCC1

IC50 [2]: > 1000 nM | solubility (physchem): 56 µM
SMILES: Cc1ccc(NC(=O)[C@H]2CC[C@H](CN3CCN(C)CC3)CC2)cc1Nc1nccc(-c2cccnc2)n1

CLhep predicted [8]: 48 mL/min/kg | logD [17]: 4.4 | IC50 (CYP3A4): > 20000 nM | solubility [9]: < 0.004 µM | solubility [10]: 0.006 µM (≈ 1.9 ng/mL)
SMILES: O=C(Cc1ccc(-c2ccccc2)cc1)Nc1cc(C2CC2)[nH]n1
IC50 (hERG (KCNH2)): > 30000 nM

IC50 [1]: 93 nM
SMILES: CC(=O)N1CCN(c2cc(-c3ccc(Sc4ccccc4C(C)C)c(C(F)(F)F)c3)ccn2)CC1

EC50 [14]: > 50 nM
SMILES: Cc1cc(-c2ccc(CNC(=O)C34CC(c5cnccn5)(C3)C4)cc2)ccn1

IC50 [2]: > 1000 nM
SMILES: Cc1ccc(NC(=O)[C@H]2C[C@@H]2CN2CCN(C)CC2)cc1Nc1nccc(-c2cccnc2)n1
